In patent US20220031736A1, “USE OF ANIONIC CLAY IN PREPARING LEAD-REMOVING MEDICINE” (priority 2019, published 2022):
Several values for one entry are separate records, joined by “and”; a condition that tells them apart may be missing. Identical values can stand only once.

System: rats with chronic lead poisoning
Assay: Chronic rat lead poisoning model, administration for treatment
Type: in vivo
Description: After the model was successfully established, the lead was stopped and the rates were fed with distilled water from the 31st day. […] The rats in the positive medicine group were given a dose of 10 mg/kg of sodium dimercaptosuccinate by intragastric administration, and all the intragastric subjects were given in equal volume twice a day for 30 days. On the 60th day, blood samples were collected. Brain, liver and femur samples were collected and stored in liquid nitrogen for later use. After wet digestion, the blood samples and tissues of each group were tested for content of lead by inductively coupled plasma mass spectrometry (ICP-MS), and the lead-removing rates were counted.
All the data were processed by SPSS 20.0 statistical software. Every group of measurement data was expressed by mean±[…] (mean±SD), and all of which were tested for homogeneity of variance by Levene method first. If the variances were homogeneous, single factor analysis of variance was used among multiple groups, and two-sample T test was used between two groups. If the hypothesis of parameter test was unreasonable, Kruskal-Wallis test was used among multiple groups, while Wilcoxon test was used between two groups. p<0.05 or p<0.01 was statistically significant.
40 male SD rats were randomly divided into five groups including a normal group, a model group, a positive medicine group (sodium dimercaptosuccinate group), a high-dose magaldrate group and a low-dose magaldrate group according to their body weights, and each group included 8 rats. Except the rats in the normal group were given ultrapure water, the rats in the model group, the positive medicine group, and the magaldrate groups of each dose drank 0.5% lead acetate ultrapure water solution for 30 days, resulting in chronic lead-exposed models. After the model was successfully established, the lead was stopped and the rates were fed with distilled water from the 31st day. The rats in the normal group were given an equal volume of 0.5% CMC-Na solution by intragastric administration, while the rats in the high-dose magaldrate group and the low-dose magaldrate group were given a high dose of 0.6 g/kg and a low dose of 0.3 g/kg respectively by intragastric administration. The rats in the positive medicine group were given a dose of 10 mg/kg of sodium dimercaptosuccinate by intragastric administration, and all the intragastric subjects were given in equal volume twice a day for 30 days. On the 60th day, blood samples were collected. Brain, liver and femur samples were collected and stored in liquid nitrogen for later use. After wet digestion, the blood samples and tissues of each group were tested for content of lead by inductively coupled plasma mass spectrometry (ICP-MS), and the lead-removing rates were counted. […]

[1] = 60th day, positive medicine 0.01 g/kg intragastric twice a day for 30 days, mean ± SD

O=C([O-])C(S)C(S)C(=O)[O-].[Na+].[Na+] (stereo not shown) [Sodium dimercaptosuccinate, sodium dimercaptosuccinate]
Content of lead in blood [1]: 0.058 ± 0.01 µg/g and 0.069 ± 0.01 µg/g and 0.059 ± 0.01 µg/g and 0.073 ± 0.01 µg/g
Content of lead in brain [1]: 0.129 ± 0.03 µg/g and 0.218 ± 0.04 µg/g and 0.178 ± 0.04 µg/g and 0.165 ± 0.05 µg/g
Femur content of lead [1]: 32.085 ± 4.73 µg/g and 35.006 ± 3.92 µg/g and 28.075 ± 3.25 µg/g and 33.478 ± 4.86 µg/g
Removing rate, lead in bones (positive medicine group 10 mg/kg, versus model group): 0.00%
